One may read the EC50 as the midpoint of the concentration-response curve.

For this assay, the target named is T1, human GPR120 (Homo sapiens, UniProt Q5NUL3).
T1 construct: expressed in transfected cells
T1 sequence (Q5NUL3 1-361): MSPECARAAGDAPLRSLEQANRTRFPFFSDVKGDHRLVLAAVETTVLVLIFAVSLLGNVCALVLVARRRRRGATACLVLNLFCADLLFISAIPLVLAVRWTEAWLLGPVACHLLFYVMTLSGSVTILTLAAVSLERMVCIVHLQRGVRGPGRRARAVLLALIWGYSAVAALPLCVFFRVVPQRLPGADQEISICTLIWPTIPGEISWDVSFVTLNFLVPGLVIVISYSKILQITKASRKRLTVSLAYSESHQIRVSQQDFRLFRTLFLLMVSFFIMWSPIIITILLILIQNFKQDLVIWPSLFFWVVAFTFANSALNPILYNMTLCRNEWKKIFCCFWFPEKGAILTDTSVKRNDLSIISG
The assay can be described thus: Human GPR120 IP1 Assay (inositol phosphate turnover, CisBio IP-One kit). The format is cell-based. The note with it: IP1 accumulation in CHO-K1 cells stably expressing the short form of human GPR120; 60 min compound incubation; 4-parameter fit; read-out: hGPR120 EC50. The essentials: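 CHO-K1 cells stably expressing short-form human GPR120 were stimulated with compounds for 60 minutes at 37 degrees in stimulation buffer. IP1 accumulation measured by HTRF competitive immunoassay (665/620 nm ratio) against an IP1 standard curve, normalized to a reference compound; EC50 from 4-parameter fit.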
With `O=C(O)CCc1ccc2c(c1)CCN(Cc1c(-c3ccc(Cl)cc3)nsc1C(F)(F)F)C2` [Example 50, 3-(2-{[3-(4-chlorophenyl)-5-(trifluoromethyl)isothiazol-4-yl]methyl}-1,2,3,4-tetrahydroiso-quinolin-6-yl)propanoic acid], the EC50 is 348 nM. On to `O=C(O)CCc1ccc2c(c1)CCN(c1cc(OC3CCC3)cc(F)c1F)C2` [Example 11, 3-{2-[5-(cyclobutyloxy)-2,3-difluorophenyl]-1,2,3,4-tetrahydro-isoquinolin-6-yl}propanoic acid], for which the EC50 came out at 15 nM. Then `N#Cc1c(F)cc(OC2CCC2)cc1N1CCc2c(ccc(CCC(=O)O)c2F)C1` [Example 155, 3-{2-[2-cyano-5-(cyclobutyloxy)-3-fluorophenyl]-5-fluoro-1,2,3,4-tetrahydroisoquinolin-6-yl}-propanoic acid], with 17 nM; and `CC1c2ccc(CCC(=O)O)cc2CCN1c1cc(OC2CCC2)ccc1F` (centres unmarked) [Example 36, 3-{2-[5-(cyclobutyloxy)-2-fluorophenyl]-1-methyl-1,2,3,4-tetrahydroisoquinolin-6-yl}propanoic acid], with 348 nM.

As for `CO[C@H]1C[C@H](Oc2cc(F)c(F)c(N3CCc4cc(CCc5nnn[nH]5)ccc4C3)c2)C1` [Example 132, 6-(2-(1H-tetrazol-5-yl)ethyl)-2-(2,3-difluoro-5-((1r,3r)-3-methoxylcyclobutoxy)-phenyl)-1,2,3,4-tetrahydroisoquinoline], the EC50 was found to be 406 nM. With `O=C(O)CCc1ccc2c(c1)CCN(c1cc(OC3CCC3)cc(C(F)F)c1F)C2` [Example 10, 3-{2-[5-(cyclobutyloxy)-3-(difluoromethyl)-2-fluorophenyl]-1,2-3,4-tetrahydroisoquinolin-6-yl}-propanoic acid], the EC50 was found to be 14 nM.

For the compound `O=C(O)[C@@H]1C[C@H]1c1ccc2c(c1)CCN(c1cc(OC3CCC3)cc(Cl)c1F)C2` [Example 114, (1R,2R)-2-{2-[3-chloro-5-(cyclobutyloxy)-2-fluorophenyl]-1,2,3,4-tetrahydroisoquinolin-6-yl} cyclopropanecarboxylic acid], the half-maximal effective concentration (EC50) was 61 nM. As for `O=C(O)CCc1cc(F)c2c(c1)CCN(c1cc(OC(F)(F)F)ccc1F)C2` [Example 51, 3-{8-fluoro-2-[2-fluoro-5-(trifluoromethoxy)phenyl]-1,2,3,4-tetrahydroisoquinolin-6-yl}-propanoic acid], the EC50 was determined as 317 nM. With `Cc1cnc(Oc2cc(Cl)c(F)c(N3CCc4c(ccc(CCC(=O)O)c4F)C3)c2)s1` [Example 62, 3-(2-{3-chloro-2-fluoro-5-[(5-methyl-1,3-thiazol-2-yl)oxy]phenyl}-5-fluoro-1,2,3,4-tetrahydroisoquinolin-6-yl)propanoic acid], the half-maximal effective concentration (EC50) came to 3 nM. As to `O=C(O)CCc1ccc2c(c1F)CCN(c1cc(OC3CCC3)ccc1F)C2` [Example 61, 3-(2-(5-cyclobutoxy-2-fluorophenyl)-5-fluoro-1,2,3,4-tetrahydro-isoquinolin-6-yl)-propanoic acid], the half-maximal effective concentration (EC50) is 28 nM.

For the compound `O=C(O)CCc1ccc2c(c1)CCN(c1cncc(OC3CCC3)n1)C2` [Example 41, 3-{2-[6-(cyclobutyloxy)pyrazin-2-yl]-1,2,3,4-tetrahydroiso-quinolin-6-yl}propanoic acid], the EC50 turned out to be 569 nM.

The record behind these values is US11161819B2, “Substituted tetrahydroisoquinoline compounds useful as GPR120 agonists” (Merck Sharp & Dohme Corp., priority 2016, dated 2021).
